Data on two compounds can be found in EP1886694A1, “Peroral formulation of dienogest and ethinylestradiol for contraception” (priority 2006, dated 2008).

Molecules are shown by their SMILES.

In one data set the test system is Ovulationshemmung. As to the kind of experiment: optimal dose for reliable ovulation inhibition. In kind it is in vivo. The following applies: mikronisiert, mittlere Teilchengröße ca. 3 µm. How it is done:
Als schwerlöslicher Wirkstoff wird Dienogest üblicherweise mikronisiert mit einer mittleren Teilchengröße von ca. 3 µm eingesetzt. Mit dieser Partikelgrößenverteilung wurde als optimale Dosis für eine sichere Ovulationshemmung 2 mg Dienogest ermittelt.

For data set [1] the following is noted: Einzeldosis; mittlere Partikelgröße 3,7 µm compared with 22 µm; cited from earlier work.

In the case of `C[C@]12CCC3=C4CCC(=O)C=C4CC[C@H]3[C@@H]1CC[C@@]2(O)CC#N` [Dienogest, 17α-Cyanomethyl-17-β-hydroxyestra-4,9-dien-3on], the “optimale Dosis für eine sichere Ovulationshemmung” value in the data set on Ovulationshemmung turned out to be 2 mg. Turning to `C[C@H]1O[C@@H](O[C@H]2[C@@H](O)C[C@H](O[C@H]3[C@@H](O)C[C@H](O[C@H]4CC[C@@]5(C)[C@H](CC[C@@H]6[C@@H]5C[C@@H](O)[C@]5(C)[C@@H](C7=CC(=O)OC7)CC[C@]65O)C4)O[C@@H]3C)O[C@@H]2C)C[C@H](O)[C@@H]1O` [Digoxin], the Plasmaspiegel entry in data set [1] was “fast doppelt so hohe”.
